Earlier results as cited in patent publication US9668986B2, “Ophthalmic, intra-articular or intravesical preparations containing N-acyl-ethanolamines” (EPITECH GROUP S.R.I., priority 2014, dated 2017).

Experiments:
CB2 = CB2 (Homo sapiens, UniProt P34972)
[1] = target: cannabinoid receptors CB1 (Homo sapiens, UniProt P21554)
Chain of cannabinoid receptors CB1 (P21554 whole entry): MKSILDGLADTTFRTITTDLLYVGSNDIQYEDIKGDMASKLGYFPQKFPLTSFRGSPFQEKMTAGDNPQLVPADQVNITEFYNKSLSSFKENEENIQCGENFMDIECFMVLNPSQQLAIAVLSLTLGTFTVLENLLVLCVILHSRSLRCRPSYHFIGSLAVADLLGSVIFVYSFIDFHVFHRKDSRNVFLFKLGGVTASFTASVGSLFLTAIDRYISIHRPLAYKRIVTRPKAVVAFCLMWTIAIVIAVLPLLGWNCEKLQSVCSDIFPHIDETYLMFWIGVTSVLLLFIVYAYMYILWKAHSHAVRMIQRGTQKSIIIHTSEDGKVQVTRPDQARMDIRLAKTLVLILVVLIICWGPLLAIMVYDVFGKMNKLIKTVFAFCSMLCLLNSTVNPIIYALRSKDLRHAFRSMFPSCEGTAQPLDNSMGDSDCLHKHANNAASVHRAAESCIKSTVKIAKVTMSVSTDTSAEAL

Chain of CB2 (P34972 whole entry, species assumed): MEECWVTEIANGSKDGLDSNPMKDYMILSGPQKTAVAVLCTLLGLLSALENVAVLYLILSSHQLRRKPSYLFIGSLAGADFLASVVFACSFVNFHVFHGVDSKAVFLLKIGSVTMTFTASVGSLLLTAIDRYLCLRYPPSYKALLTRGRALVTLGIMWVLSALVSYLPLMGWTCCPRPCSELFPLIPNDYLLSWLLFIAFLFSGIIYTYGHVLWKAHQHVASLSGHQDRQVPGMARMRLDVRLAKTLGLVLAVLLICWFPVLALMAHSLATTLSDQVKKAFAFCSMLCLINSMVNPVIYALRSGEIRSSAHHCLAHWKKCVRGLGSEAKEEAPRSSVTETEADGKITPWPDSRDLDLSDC

CCCCCCCCCCCCCCCC(=O)NCCO [PEA, N-palmitoylethanolamine]
affinity for CB2 (CB2): poor affinity
water solubility: not water-soluble
affinity for CB1 [1]: poor affinity
